# According to patent US6900219B2, “ABCA-1 elevating compounds” (CV Therapeutics, Inc., priority 2002, dated 2005):
# Test system: ABCA-1 gene
# Assay: compounds tested and found to elevate cellular expression of the ABCA-1 gene (Examples 1-6; test not named)
# Assay type: cell-based
# Protocol: Activity testing is conducted as described in those patents and patent applications referenced above, and in the Examples below, and by methods apparent to one skilled in the art.
row,Compound,cellular expression of the ABCA-1 gene
1,CC(=O)Nc1ccc(N=Nc2ccccc2)cc1 [N-[4-(phenyldiazenyl)phenyl]acetamide],elevate cellular expression of the ABCA-1 gene
2,"O=C(Nc1ncc(-c2ccccc2Cl)s1)c1ccco1 [N-[5-(2-chlorophenyl)(1,3-thiazol-2-yl)]-2-furylcarboxamide]",elevate cellular expression of the ABCA-1 gene
3,"O=C(Nc1ncc(-c2ccccc2Cl)s1)C1CC1 [N-[5-(2-chlorophenyl)(1,3-thiazol-2-yl)]cyclopropylcarboxamide]",elevate cellular expression of the ABCA-1 gene
4,"O=C(Nc1ncc(-c2ccc(F)cc2)s1)c1ccco1 [N-[5-(4-fluorophenyl)(1,3-thiazol-2-yl)]-2-furylcarboxamide]",elevate cellular expression of the ABCA-1 gene
5,"O=C(Nc1ncc(-c2ccc(F)cc2)s1)c1cccs1 [N-[5-(4-fluorophenyl)(1,3-thiazol-2-yl)]-2-thienylcarboxamide]",elevate cellular expression of the ABCA-1 gene
6,CC(C)(C)c1cc(NC(=O)C(C)(C)S(=O)(=O)c2ccc(C(F)(F)F)cc2)no1 [N-[5-(tert-butyl)isoxazol-3-yl]-2-methyl-2-{[4-(trifluoromethyl)phenyl]sulfonyl}-propanamide],elevate cellular expression of the ABCA-1 gene
7,CS(=O)(=O)c1ccc2nc(NC(=O)c3cccs3)sc2c1 [N-[6-(methylsulfonyl)benzothiazol-2-yl]-2-thienylcarboxamide],elevate cellular expression of the ABCA-1 gene
8,"CCc1c(C(=O)NC23CC4CC(CC(C4)C2)C3)cnn1-c1nc(-c2ccc(C)cc2)cs1 [N-adamantanyl {5-ethyl-1-[4-(4-methylphenyl)(1,3-thiazol-2-yl)]pyrazol-4-yl}carboxamide]",elevate cellular expression of the ABCA-1 gene
9,O=C(Nc1nc2ccccc2s1)c1sc2ccccc2c1Cl [N-benzothiazol-2-yl(3-chlorobenzo[b]thiophen-2-yl)carboxamide],elevate cellular expression of the ABCA-1 gene
10,N#Cc1cccc(C(=O)Nc2nc3ccccc3s2)c1 [N-benzothiazol-2-yl(3-cyanophenyl)carboxamide],elevate cellular expression of the ABCA-1 gene
11,O=C(Nc1nc2ccccc2s1)c1cccc(F)c1 [N-benzothiazol-2-yl(3-fluorophenyl)carboxamide],elevate cellular expression of the ABCA-1 gene
12,N#Cc1ccc(C(=O)Nc2nc3ccccc3s2)cc1 [N-benzothiazol-2-yl(4-cyanophenyl)carboxamide],elevate cellular expression of the ABCA-1 gene
13,CCCCNC(=O)Nc1nc2ccccc2s1 [N-benzothiazol-2-yl(butylamino)carboxamide],elevate cellular expression of the ABCA-1 gene
14,CCCNC(=O)Nc1nc2ccccc2s1 [N-benzothiazol-2-yl(propylamino)carboxamide],elevate cellular expression of the ABCA-1 gene
15,CC(C)(C)NC(=O)Nc1nc2ccccc2s1 [N-benzothiazol-2-yl(tert-butylamino)carboxamide],elevate cellular expression of the ABCA-1 gene
16,O=C(Cc1cccs1)Nc1nc2ccccc2s1 [N-benzothiazol-2-yl-2-(2-thienyl)acetamide],elevate cellular expression of the ABCA-1 gene
17,N#Cc1c(C(F)(F)F)cc(-c2cccs2)nc1SCC(=O)Nc1nc2ccccc2s1 [N-benzothiazol-2-yl-2-[3-cyano-6-(2-thienyl)-4-(trifluoromethyl)(2-pyridylthio)]acetamide],elevate cellular expression of the ABCA-1 gene
18,O=C(Nc1nc2ccccc2s1)c1ccco1 [N-benzothiazol-2-yl-2-furylcarboxamide],elevate cellular expression of the ABCA-1 gene
19,O=C(Nc1nc2ccccc2s1)c1ccccn1 [N-benzothiazol-2-yl-2-pyridylcarboxamide],elevate cellular expression of the ABCA-1 gene
20,O=C(Nc1nc2ccccc2s1)c1cccs1 [N-benzothiazol-2-yl-2-thienylcarboxamide],elevate cellular expression of the ABCA-1 gene
21,O=C(CCC1CCCC1)Nc1nc2ccccc2s1 [N-benzothiazol-2-yl-3-cyclopentylpropanamide],elevate cellular expression of the ABCA-1 gene
22,O=C(Nc1nc2ccccc2s1)c1ccncc1 [N-benzothiazol-2-yl-4-pyridylcarboxamide],elevate cellular expression of the ABCA-1 gene

row,Compound,cellular expression of the ABCA-1 gene
1,O=C(Nc1nc2ccccc2s1)c1cnn(-c2ccc(Cl)cc2)c1C(F)(F)F [N-benzothiazol-2-yl[1-(4-chlorophenyl)-5-(trifluoromethyl)pyrazol-4-yl]carboxamide],elevate cellular expression of the ABCA-1 gene
2,CCCc1c(C(=O)Nc2nc3ccccc3s2)cnn1-c1ccc(Cl)cc1 [N-benzothiazol-2-yl[1-(4-chlorophenyl)-5-propylpyrazol-4-yl]carboxamide],elevate cellular expression of the ABCA-1 gene
3,O=C(Nc1nc2ccccc2s1)c1cnn(Cc2ccccc2)c1 [N-benzothiazol-2-yl[1-benzylpyrazol-4-yl]carboxamide],elevate cellular expression of the ABCA-1 gene
4,O=C(Nc1nc2ccccc2s1)c1cnn(-c2ccccc2)c1C(F)(F)F [N-benzothiazol-2-yl[1-phenyl-5-(trifluoromethyl)pyrazol-4-yl]carboxamide],elevate cellular expression of the ABCA-1 gene
5,"O=C(Nc1nc2ccccc2s1)c1cc(C(F)(F)F)cc(C(F)(F)F)c1 [N-benzothiazol-2-yl[3,5-bis(trifluoromethyl)phenyl]carboxamide]",elevate cellular expression of the ABCA-1 gene
6,Cc1onc(-c2ccccc2Cl)c1C(=O)Nc1nc2ccccc2s1 [N-benzothiazol-2-yl[3-(2-chlorophenyl)-5-methylisoxazol-4-yl]carboxamide],elevate cellular expression of the ABCA-1 gene
7,Cc1onc(-c2c(F)cccc2Cl)c1C(=O)Nc1nc2ccccc2s1 [N-benzothiazol-2-yl[3-(6-chloro-2-fluorophenyl)-5-methylisoxazol-4-yl]carboxamide],elevate cellular expression of the ABCA-1 gene
8,O=C(Nc1cccc(Cl)c1)Nc1nc2ccccc2s1 [N-benzothiazol-2-yl[(3-chlorophenyl)amino]carboxamide],elevate cellular expression of the ABCA-1 gene
9,O=C(Nc1nc2ccccc2s1)C1CCC1 [N-benzothiazol-2-ylcyclobutylcarboxamide],elevate cellular expression of the ABCA-1 gene
10,O=C(Nc1nc2ccccc2s1)c1ccno1 [N-benzothiazol-2-ylisoxazol-5-ylcarboxamide],elevate cellular expression of the ABCA-1 gene
11,CCCCC(=O)Nc1nc2ccccc2s1 [N-benzothiazol-2-ylpentanamide],elevate cellular expression of the ABCA-1 gene
12,"Cc1ccc(-c2csc(-n3ncc(C(=O)NC4CC5CCC4C5)c3C)n2)cc1 (stereo not shown) [N-bicyclo[2.2.1]hept-2-yl {5-methyl-1-[4-(4-methylphenyl)(1,3-thiazol-2-yl)]pyrazol-4-yl}carboxamide]",elevate cellular expression of the ABCA-1 gene
13,CCCCN(Cc1ccc(OCc2ccccc2)cc1)C(=O)Nc1ccc(SC)cc1 [N-butyl[(4-thiomethylphenyl)amino]-N-{[4-(phenylmethoxy)phenyl]methyl}-carboxamide],elevate cellular expression of the ABCA-1 gene
14,"Cc1c(C(=O)NC2CC2)cnn1-c1nc(-c2ccccc2)cs1 [N-cyclopropyl[5-methyl-1-(4-phenyl(1,3-thiazol-2-yl))pyrazol-4-yl]carboxamide]",elevate cellular expression of the ABCA-1 gene
15,O=C(Nc1ccccc1)Nc1ccc2c(c1)CCC2 [N-indan-5-yl(phenylamino)carboxamide],elevate cellular expression of the ABCA-1 gene
16,O=C(Nc1ccc2c(c1)CCC2)c1cccs1 [N-indan-5-yl-2-thienylcarboxamide],elevate cellular expression of the ABCA-1 gene
17,"CNC(=O)C(Sc1nnc(NC(=O)c2ccc(C)cc2)s1)C(C)=O (stereo not shown) [N-methyl-2-{5-[(4-methylphenyl)carbonylamino](1,3,4-thiadiazol-2-ylthio)}-3-oxobutanamide]",elevate cellular expression of the ABCA-1 gene
18,"CCC(c1nc2ccccc2c(=O)n1-c1ccc(C)c(C)c1)N(CCOC)C(=O)Nc1ccc(Cl)cc1 (stereo not shown) [N-{[3-(3,4-dimethylphenyl)-4-oxo(3-hydroquinazolin-2-yl)]propyl}[(4-chlorophenyl)amino]-N-(2-methoxyethyl)carboxamide]",elevate cellular expression of the ABCA-1 gene
19,"CCC(c1nc2ccccc2c(=O)n1-c1ccc(C)c(C)c1)N(Cc1ccccc1)C(=O)Nc1ccc(OC)cc1 (stereo not shown) [N-{[3-(3,4-dimethylphenyl)-4-oxo(3-hydroquinazolin-2-yl)]propyl}[(4-methoxyphenyl)amino]-N-benzylcarboxamide]",elevate cellular expression of the ABCA-1 gene
20,CCNC(=O)N(Cc1ccco1)C(C)c1nc2ccccc2c(=O)n1-c1ccc(Br)cc1 (stereo not shown) [N-{[3-(4-bromophenyl)-4-oxo(3-hydroquinazolin-2-yl)]ethyl}(ethylamino)-N-(2-furylmethyl)carboxamide],elevate cellular expression of the ABCA-1 gene
21,CCCCN(C(=O)Nc1ccc(OC)cc1)C(C)c1nc2ccccc2c(=O)n1-c1ccc(Br)cc1 (stereo not shown) [N-{[3-(4-bromophenyl)-4-oxo(3-hydroquinazolin-2-yl)]ethyl}-N-butyl[(4-methoxyphenyl)amino]carboxamide],elevate cellular expression of the ABCA-1 gene
